From patent US20250115620A1, “BRIDGED TRICYCLIC CARBAMOYLPYRIDONE COMPOUNDS AND USES THEREOF” (Gilead Sciences, Inc., priority 2022, published 2025)
Where two headings read alike, the source gives them in different places.

What was measured:
[1] = in vitro; settings: human, uninfected MT-4 cells
[2] = test system: pLAI reporter virus; assay: microbe, parasite or virus in culture; assay type: cell-based, HIV; settings: Human immunodeficiency virus 1, MT4, 72 h
[3] = test system: HIV-1 (IIIB); assay: microbe, parasite or virus in culture; assay type: cell-based; settings: Human immunodeficiency virus 1, IIIB, MT4, 120 h, HIV-1 (IIIB) in MT-4 cells, 5 days incubation, Cell Titer Glo; read-out: MT4 EC50
Experimental: Compounds were tested in a high-throughput 384-well assay format for their ability to inhibit the replication of HIV-1 (IIIB) in MT-4 cells. Compounds were serially diluted (1:3) in DMSO on 384-well polypropylene plates and further diluted 200-fold into complete RPMI media (10% FBS, 1% P/S) using the Biotek Micro Flow and Labcyte ECHO acoustic dispenser. Each plate contained up to 8 test compounds, with negative (No Drug Control) and 5 μM AZT positive controls. MT-4 cells were pre-infected with 10 μL of either RPMI (mock-infected) or a fresh 1:250 dilution of HIV-1 IIIB concentrated virus stock. Infected and uninfected MT-4 cells were further diluted in complete RPMI media and added to each plate using a Micro Flow dispenser. After 5 days incubation in a humidified and temperature controlled incubator (37° C.), Cell Titer Glo (Promega) was added to the assay plates and chemiluminescence read using an Envision plate-reader.

Compound | CC50 at 5 days [1] | EC50 ([2]; read-out: RLUC 50% HS EC50) | EC50 ([2]; read-out: RLUC CCM EC50) | EC50 [3]
COCCOC1=NO[C@@]2(CC[C@H](C)N3C[C@H]2n2cc(C(=O)NCc4c(F)cc(F)cc4F)c(=O)c(O)c2C3=O)C1 [Example 38, (3′S,5S,7′R)-12′-hydroxy-3-(2-methoxyethoxy)-3′-methyl-1′,11′-dioxo-N-(2,4,6-trifluorobenzyl)-1′,4′,5′,11′-tetrahydro-3′H,4H,7′H-spiro[isoxazole-5,6′-[2,7]methanopyrido[1,2-a][1,4]diazonine]-10′-carboxamide] | 22100 nM | 1.5 nM | 0.3 nM | 1.2 nM
[2H]C([2H])([2H])OC1=NO[C@@]2(CC[C@H](C)N3C[C@H]2n2cc(C(=O)NCc4c(F)cc(F)cc4F)c(=O)c(O)c2C3=O)C1([2H])[2H] [Example 39, (3′S,5S,7′R)-12′-hydroxy-3-(methoxy-d3)-3′-methyl-1′,11′-dioxo-N-(2,4,6-trifluorobenzyl)-1′,4′,5′,11′-tetrahydro-3′H,4H,7′H-spiro[isoxazole-5,6′-[2,7]methanopyrido[1,2-a][1,4]diazonine]-4,4-d2-10′-carboxamide] | 23500 nM | 35.4 nM | 0.3 nM | 1 nM
COCCOC1=NO[C@@]2(CC[C@H](C)N3C[C@H]2n2cc(C(=O)NCc4ccc(F)cc4F)c(=O)c(O)c2C3=O)C1 [Example 41, (3′S,5S,7′R)—N-(2,4-difluorobenzyl)-12′-hydroxy-3-(2-methoxyethoxy)-3′-methyl-1′,11′-dioxo-1′,4′,5′,11′-tetrahydro-3′H,4H,7′H-spiro[isoxazole-5,6′-[2,7]methanopyrido[1,2-a][1,4]diazonine]-10′-carboxamide] | 21500 nM | 0.5 nM | 0.4 nM | 0.6 nM
C[C@H]1CC[C@]2(CC(C#N)=NO2)[C@H]2CN1C(=O)c1c(O)c(=O)c(C(=O)NCc3ccc(F)cc3F)cn12 [Example 42, (3′S,5S,7′R)-3-cyano-N-(2,4-difluorobenzyl)-12′-hydroxy-3′-methyl-1′,11′-dioxo-1′,4′,5′,11′-tetrahydro-3′H,4H,7′H-spiro[isoxazole-5,6′-[2,7]methanopyrido[1,2-a][1,4]diazonine]-10′-carboxamide] | ≥ 50000 nM | 550 nM | 157 nM | ≥ 100 nM
CSC1=NO[C@@]2(CC[C@H](C)N3C[C@H]2n2cc(C(=O)NCc4c(F)cc(F)cc4F)c(=O)c(O)c2C3=O)C1 [Example 43, (3′S,5S,7′R)-12′-hydroxy-3′-methyl-3-(methylthio)-1′,11′-dioxo-N-(2,4,6-trifluorobenzyl)-1′,4′,5′,11′-tetrahydro-3′H,4H,7′H-spiro[isoxazole-5,6′-[2,7]methanopyrido[1,2-a][1,4]diazonine]-10′-carboxamide] | 33400 nM | 279 nM | 1.5 nM | 6.1 nM
C[C@H]1CC[C@]2(CC(Br)=NO2)[C@H]2CN1C(=O)c1c(O)c(=O)c(C(=O)NCc3ccc(F)cc3F)cn12 [Example 44, (3′S,5S,7′R)-3-bromo-N-(2,4-difluorobenzyl)-12′-hydroxy-3′-methyl-1′,11′-dioxo-1′,4′,5′,11′-tetrahydro-3′H,4H,7′H-spiro[isoxazole-5,6′-[2,7]methanopyrido[1,2-a][1,4]diazonine]-10′-carboxamide] | 24400 nM | 160 nM | 0.1 nM | 0.7 nM
C[C@H]1CC[C@]2(CC(OC3COC3)=NO2)[C@H]2CN1C(=O)c1c(O)c(=O)c(C(=O)NCc3ccc(F)cc3F)cn12 [Example 45, (3′S,5S,7′R)—N-(2,4-difluorobenzyl)-12′-hydroxy-3′-methyl-3-(oxetan-3-yloxy)-1′,11′-dioxo-1′,4′,5′,11′-tetrahydro-3′H,4H,7′H-spiro[isoxazole-5,6′-[2,7]methanopyrido[1,2-a][1,4]diazonine]-10′-carboxamide] | ≥ 50000 nM | 1.8 nM | 0.4 nM | 2 nM
C[C@H]1CC[C@]2(CC(OCC(F)(F)F)=NO2)[C@H]2CN1C(=O)c1c(O)c(=O)c(C(=O)NCc3ccc(F)cc3F)cn12 [Example 46, (3′S,5S,7′R)—N-(2,4-difluorobenzyl)-12′-hydroxy-3′-methyl-1′,11′-dioxo-3-(2,2,2-trifluoroethoxy)-1′,4′,5′,11′-tetrahydro-3′H,4H,7′H-spiro[isoxazole-5,6′-[2,7]methanopyrido[1,2-a][1,4]diazonine]-10′-carboxamide] | 7720 nM | 2.3 nM | 0.1 nM | 1.7 nM
C[C@H]1CC[C@]2(CC(OCC(F)F)=NO2)[C@H]2CN1C(=O)c1c(O)c(=O)c(C(=O)NCc3ccc(F)cc3F)cn12 [Example 47, (3′S,5S,7′R)—N-(2,4-difluorobenzyl)-3-(2,2-difluoroethoxy)-12′-hydroxy-3′-methyl-1′,11′-dioxo-1′,4′,5′,11′-tetrahydro-3′H,4H,7′H-spiro[isoxazole-5,6′-[2,7]methanopyrido[1,2-a][1,4]diazonine]-10′-carboxamide] | 27500 nM | 6.5 nM | 0.5 nM | 1.8 nM
COC1=NO[C@@]2(C=C[C@H](C)N3C[C@H]2n2cc(C(=O)NCc4ccc(F)c(Cl)c4F)c(=O)c(O)c2C3=O)C1 [Example 48, (3′S,5R,7′R)—N-(3-chloro-2,4-difluorobenzyl)-12′-hydroxy-3-methoxy-3′-methyl-1′,11′-dioxo-1′,11′-dihydro-3′H,4H,7′H-spiro[isoxazole-5,6′-[2,7]methanopyrido[1,2-a][1,4]diazonine]-10′-carboxamide] | 22900 nM | 8.1 nM | 0.2 nM | 0.4 nM
COC1=NO[C@@]2(CC[C@H](C)N3C[C@H]2n2cc(C(=O)NCc4ccc(F)c(Cl)c4F)c(=O)c(O)c2C3=O)C1 [Example 49, (3′S,5S,7′R)—N-(3-chloro-2,4-difluorobenzyl)-12′-hydroxy-3-methoxy-3′-methyl-1′,11′-dioxo-1′,4′,5′,11′-tetrahydro-3′H,4H,7′H-spiro[isoxazole-5,6′-[2,7]methanopyrido[1,2-a][1,4]diazonine]-10′-carboxamide] | 29800 nM | 124 nM | 0.3 nM | 0.7 nM
C[C@H]1CC[C@@]2(ON=C3OCCC[C@@H]32)[C@H]2CN1C(=O)c1c(O)c(=O)c(C(=O)NCc3c(F)cc(F)cc3F)cn12 [Example 50, (3S,3a R,3′S,7′R)-12′-hydroxy-3′-methyl-1′,11′-dioxo-N-(2,4,6-trifluorobenzyl)-1′,3a,4,4′,5,5′,6,11′-octahydro-3′H,7′H-spiro[pyrano[2,3-c]isoxazole-3,6′-[2,7]methanopyrido[1,2-a][1,4]diazonine]-10′-carboxamide] | ≥ 50000 nM | 10.3 nM | 0.5 nM | 0.8 nM
CNC1=NO[C@@]2(CC[C@H](C)N3C[C@H]2n2cc(C(=O)NCc4c(F)cc(F)cc4F)c(=O)c(O)c2C3=O)C1 [Example 51, (3′S,5S,7′R)-12′-hydroxy-3′-methyl-3-(methylamino)-1′,11′-dioxo-N-(2,4,6-trifluorobenzyl)-1′,4′,5′,11′-tetrahydro-3′H,4H,7′H-spiro[isoxazole-5,6′-[2,7]methanopyrido[1,2-a][1,4]diazonine]-10′-carboxamide] | 41100 nM | 5.2 nM | 0.3 nM | 1.3 nM
